# Results published in article PMC11396514, “Synthesis and Biological Evaluation of Novel Piperidine-3-Carboxamide Derivatives as Anti-Osteoporosis Agents Targeting Cathepsin K” (Molecules, 2024).
# How the values were obtained:
# Recombinant human Cat K = target: T1, Recombinant human Cat K (Homo sapiens, UniProt P43235); test: In vitro enzymatic assay of Cat K inhibition (Z-Phe-Arg-AMC fluorescence); type: biochemical; settings: pH 6.0, substrate Z-Phe-Arg-AMC, read-out: Cat K IC50 (µM) ± SD
# T1 sequence (P43235 115-329): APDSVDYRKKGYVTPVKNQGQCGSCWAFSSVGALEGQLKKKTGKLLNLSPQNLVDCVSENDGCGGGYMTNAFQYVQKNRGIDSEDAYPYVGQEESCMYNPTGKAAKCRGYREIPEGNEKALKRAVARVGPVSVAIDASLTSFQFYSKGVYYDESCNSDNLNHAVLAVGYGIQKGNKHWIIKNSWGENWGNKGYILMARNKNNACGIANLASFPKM
# Experimental: Compounds were tested at eight concentrations (100–0.001 µM). Recombinant human Cat K (5.5 ng/mL) in reaction buffer (50 µL) containing sodium acetate (50 mM), EDTA (2.5 mM), and DTT (1 mM) was added to a 96-well plate containing the test compounds at pH 6.0. The plate was incubated at 37 °C for 15 min, and the fluorescence (F1) was measured at 355 nm excitation and 460 nm emission using a microplate reader (Wallac 1420 Victor2, Norwalk, CA, USA). Subsequently, Z-Phe-Arg-AMC (20 µL, 10 µM) was added, and the plate was incubated at 37 °C for 1 h. Fluorescence (F2) was measured again at 355 nm excitation and 460 nm emission. The inhibition rate was calculated using the formula: inhibition (%) = [control (F2 − F1) − sample (F2–F1)]/[control (F2 − F1) − blank (F2 − F1)] × 100%. IC50 values were calculated using the SPSS 17.0 software.
# [1] = test system: RANKL-induced RAW264.7 cells; test: In vitro anti-bone resorption assay: CTX-I released into culture medium (ELISA), cells on bovine femur slices; type: cell-based; settings: compound 1 µM, 5 days; for CTX-I concentration compared to the model group (in words): vs untreated model group
# From the text: (§1) Type I collagen, the predominant structural protein in bone, constitutes approximately 90% of the bone matrix protein [22]. During bone renewal, type I collagen is degraded, releasing short peptide fragments such as the C-terminal peptide of type I collagen (CTX-I) into the bloodstream. The concentration of CTX-I in the patient’s blood serves as a crucial biomarker for evaluating the degree of osteoporosis. In vitro, bone resorption can be assessed by measuring the concentration of CTX-I using a model in which osteoclasts are cultured on bone slices. In this experiment, the in vitro anti-bone resorption activities of the test compounds were evaluated in RANKL-induced RAW264.7 cells. This evaluation was based on the concentration of CTX-I released into the cell culture medium due to bone degradation, as well as the area of bone resorption pits formed on bone slices.
# (§2) RAW264.7 cells, obtained from the cell bank of the Chinese Academy of Medical Sciences, were seeded into 96-well plates at a density of 1 × 10^5 cells per well with bovine femur slices. To induce cell differentiation, 50 ng mL^−1 of RANKL was added to the RAW264.7 cells. The cells were cultured for 5 days at 37 °C under 5% CO2 with the test compounds at a concentration of 1 µM. The culture supernatant was collected to measure the CTX-I concentration using ELISA. The bone slices were fixed with 2.5% glutaraldehyde for 7 min, then washed 3 times with 0.25 mol/L ammonium hydroxide, dehydrated using a series of ethanol solutions (40%, 75%, 80%, 95%, and anhydrous ethanol), and dried naturally. After staining with 1% toluidine blue solution at room temperature for 3–4 min, the bone slices were rinsed with distilled water and analyzed using an optical microscope. Bone resorption areas were calculated using image analysis software (iBright CL1500, Redmond, WA, USA).
# [2] = test system: RANKL-induced RAW264.7 cells; test: In vitro anti-bone resorption assay: area of bone resorption pits on bone slices (toluidine blue); type: cell-based; settings: compound 1 µM, 5 days, compared with MIV-711 / model group
# From the text: as §1, §2
Compound,IC50 (Recombinant human Cat K) [µM],melting point [°C],CTX-I concentration compared to the model group (in words) [1],Anti-bone resorption activity by area of bone resorption pits (in words) [2],CTX-I concentration in the cell culture medium ([1]; ELISA) [nM]
COc1ccc(S(=O)(=O)N2CCC[C@@H](C(C)=O)C2)cc1 [Compound F-12],13.5 ± 2.16,,,,
"COc1ccc(S(=O)(=O)N2CCC[C@@H](C(=O)NCc3ccccc3C)C2)cc1 [Compound H-1, (R)-1-((4-methoxyphenyl)sulfonyl)-N-(2-methylbenzyl)piperidine-3-carboxamide]",3.52 ± 0.44,170.4 to 171.4,,,
"COc1ccc(S(=O)(=O)N2CCC[C@@H](C(=O)NCc3cccc(C)c3)C2)cc1 [Compound H-2, (R)-1-((4-methoxyphenyl)sulfonyl)-N-(3-methylbenzyl)piperidine-3-carboxamide]",4.76 ± 0.71,189.8 to 190.1,,,
"COc1ccc(S(=O)(=O)N2CCC[C@@H](C(=O)NCc3ccc(C)cc3)C2)cc1 [Compound H-3, (R)-1-((4-methoxyphenyl)sulfonyl)-N-(4-methylbenzyl)piperidine-3-carboxamide]",4.39 ± 0.65,182.3 to 182.7,,,
"COc1ccc(S(=O)(=O)N2CCC[C@@H](C(=O)NCc3ccccc3OC)C2)cc1 [Compound H-4, (R)-N-(2-methoxybenzyl)-1-((4-methoxyphenyl)sulfonyl)piperidine-3-carboxamide]",2.48 ± 0.37,143.7 to 144.2,,,
"COc1ccc(S(=O)(=O)N2CCC[C@@H](C(=O)NCc3cccc(OC)c3)C2)cc1 [Compound H-5, (R)-N-(3-methoxybenzyl)-1-((4-methoxyphenyl)sulfonyl)piperidine-3-carboxamide]",2.93 ± 0.4,130.2 to 131.2,,,
"COc1ccc(CNC(=O)[C@@H]2CCCN(S(=O)(=O)c3ccc(OC)cc3)C2)cc1 [Compound H-6, (R)-N-(4-methoxybenzyl)-1-((4-methoxyphenyl)sulfonyl)piperidine-3-carboxamide]",3.64 ± 0.39,139.4 to 140.9,,,
"COc1ccc(S(=O)(=O)N2CCC[C@@H](C(=O)NCc3ccccc3Cl)C2)cc1 [Compound H-7, (R)-N-(2-chlorobenzyl)-1-((4-methoxyphenyl)sulfonyl)piperidine-3-carboxamide]",1.06 ± 0.18,192.3 to 193.6,,,
"COc1ccc(S(=O)(=O)N2CCC[C@@H](C(=O)NCc3cccc(Cl)c3)C2)cc1 [Compound H-8, (R)-N-(3-chlorobenzyl)-1-((4-methoxyphenyl)sulfonyl)piperidine-3-carboxamide]",0.45 ± 0.11,146.1 to 148.7,reduced CTX-I concentration,,
"COc1ccc(S(=O)(=O)N2CCC[C@@H](C(=O)NCc3ccccc3Br)C2)cc1 [Compound H-10, (R)-N-(2-bromobenzyl)-1-((4-methoxyphenyl)sulfonyl)piperidine-3-carboxamide]",2.18 ± 0.39,153.7 to 154.5,,,

# Now from value to molecule, other results behind:
IC50 (Recombinant human Cat K) [µM],melting point [°C],Compound,CTX-I concentration compared to the model group (in words) [1],Anti-bone resorption activity by area of bone resorption pits (in words) [2],CTX-I concentration in the cell culture medium ([1]; ELISA) [nM]
0.66 ± 0.2,124.7 to 126.5,"COc1ccc(S(=O)(=O)N2CCC[C@@H](C(=O)NCc3cccc(Br)c3)C2)cc1 [Compound H-11, (R)-N-(3-bromobenzyl)-1-((4-methoxyphenyl)sulfonyl)piperidine-3-carboxamide]",reduced CTX-I concentration,,
0.22 ± 0.05,148.1 to 149.3,"COc1ccc(S(=O)(=O)N2CCC[C@@H](C(=O)NCc3ccc(Br)cc3)C2)cc1 [Compound H-12, (R)-N-(4-bromobenzyl)-1-((4-methoxyphenyl)sulfonyl)piperidine-3-carboxamide]",reduced CTX-I concentration,comparable to that of MIV-711,
0.74 ± 0.12,189.5 to 190.5,"COc1ccc(CNC(=O)[C@@H]2CCCN(S(=O)(=O)c3ccccc3Br)C2)cc1 [Compound H-13, (R)-1-((2-bromophenyl)sulfonyl)-N-(4-methoxybenzyl)piperidine-3-carboxamide]",reduced CTX-I concentration,,
0.91 ± 0.15,203.5 to 204.2,"COc1ccc(CNC(=O)[C@@H]2CCCN(S(=O)(=O)c3cccc(Br)c3)C2)cc1 [Compound H-14, (R)-1-((3-bromophenyl)sulfonyl)-N-(4-methoxybenzyl)piperidine-3-carboxamide]",,,
0.85 ± 0.19,152.4 to 154.4,"COc1ccc(CNC(=O)[C@@H]2CCCN(S(=O)(=O)c3ccc(Br)cc3)C2)cc1 [Compound H-15, (R)-1-((4-bromophenyl)sulfonyl)-N-(4-methoxybenzyl)piperidine-3-carboxamide]",,,
2.03 ± 0.43,162.3 to 164.5,"COc1ccc(CNC(=O)[C@@H]2CCCN(S(=O)(=O)c3ccccc3Cl)C2)cc1 [Compound H-16, (R)-1-((2-chlorophenyl)sulfonyl)-N-(4-methoxybenzyl)piperidine-3-carboxamide]",reduced CTX-I concentration,,
0.47 ± 0.12,117.1 to 119.9,"COc1ccc(CNC(=O)[C@@H]2CCCN(S(=O)(=O)c3cccc(Cl)c3)C2)cc1 [Compound H-17, (R)-1-((3-chlorophenyl)sulfonyl)-N-(4-methoxybenzyl)piperidine-3-carboxamide]",reduced CTX-I concentration,comparable to that of MIV-711,
0.78 ± 0.3,147 to 148.7,"COc1ccc(CNC(=O)[C@@H]2CCCN(S(=O)(=O)c3ccc(Cl)cc3)C2)cc1 [Compound H-18, (R)-1-((4-chlorophenyl)sulfonyl)-N-(4-methoxybenzyl)piperidine-3-carboxamide]",,,
5.33 ± 0.94,108.3 to 109.4,"COc1ccc(CNC(=O)[C@@H]2CCCN(S(=O)(=O)c3ccccc3C)C2)cc1 [Compound H-19, (R)-N-(4-methoxybenzyl)-1-(o-tolylsulfonyl)piperidine-3-carboxamide]",,,
3.82 ± 0.91,152.6 to 154.2,"COc1ccc(CNC(=O)[C@@H]2CCCN(S(=O)(=O)c3cccc(C)c3)C2)cc1 [Compound H-20, (R)-N-(4-methoxybenzyl)-1-(m-tolylsulfonyl)piperidine-3-carboxamide]",,,
3.65 ± 0.86,162.9 to 163.7,"COc1ccc(CNC(=O)[C@@H]2CCCN(S(=O)(=O)c3ccc(C)cc3)C2)cc1 [Compound H-21, (R)-N-(4-methoxybenzyl)-1-tosylpiperidine-3-carboxamide]",,,
0.09 ± 0.02,,"C#C[C@@H]1CN(C(=O)[C@H](CC(C)C)NC(=O)c2ccc(-c3nc(N4CCN(C)CC4)sc3F)cc2)[C@@H]2C(=O)CO[C@H]12 [MIV-711, reference compound]",,,21.73 ± 3.18
